From ChEMBL document CHEMBL3758102, “Serrulatane Diterpenoid from Eremophila neglecta Exhibits Bacterial Biofilm Dispersion and Inhibits Release of Pro-inflammatory Cytokines from Activated Macrophages” (J Nat Prod, 2015)
Values after ≈ are worked out from the molar mass of the structure shown. Active and inactive are the calls of the source. The rule behind the calls is not given here.

Experiments:
[1] = system: Staphylococcus epidermidis; test: Antibiofilm activity against Staphylococcus epidermidis ATCC 35984 assessed as inhibition of 12 hrs pre-established biofilm formation at 0.064 umol/well after 20 hrs by visible spectrometric analysis; assay type: functional, organism-based
[2] = system: Staphylococcus epidermidis; test: (§1) Antibiofilm activity against Staphylococcus epidermidis ATCC 35984 assessed as 12 hrs pre-established supernatant viable cell count at 0.01 umol/mesh after 20 hrs by […] using compound impregnated in polypropylene mesh (Rvb =7.7 x 10^8 CFU/ml); assay type: functional
[3] = system: Staphylococcus epidermidis; test: Antibiofilm activity against Staphylococcus epidermidis ATCC 35984 assessed as inhibition of 3 to 6 hrs pre-established biofilm formation at 0.064 umol/well after 20 hrs by safranin staining-based method; assay type: functional, organism-based
Staphylococcus aureus = test: Antibacterial activity against Staphylococcus aureus ATCC 25923 incubated overnight by broth microdilution method; assay type: functional
[4] = system: Staphylococcus epidermidis; test: as §1, with “biofilm” for “supernatant”, “0.02” for “0.01”, “(reference value: 8.6” for “(Rvb =7.7”, “10^9” for “10^8”; assay type: functional
BMDM [5] = test: Inhibition of TNFalpha production in C57Bl/6 mouse BMDM cells at 40 to 80 uM pretreated prior to LPS-stimulation measured on day 7 by ELISA; assay type: functional, cell-based; conditions: C57BI/6
[6] = system: Staphylococcus epidermidis; test: Antibiofilm activity against Staphylococcus epidermidis ATCC 35984 assessed as 12 hrs pre-established supernatant viable cell count at 0.02 umol/mesh after 20 hrs by […] using compound impregnated in polypropylene mesh (Rvb =7.7 x 10^8 CFU/ml); assay type: functional
[7] = system: Staphylococcus epidermidis; test: as §1, with “biofilm” for “supernatant”, “0.04” for “0.01”, “(reference value: 8.6” for “(Rvb =7.7”, “10^9” for “10^8”; assay type: functional
[8] = Induction of apoptosis in C57Bl/6 mouse BMDM cells assessed as early apoptotic cells at 20 uM by annexin V-FITC/DAPI staining-based flow cytometric analysis (reference value: 0.49%); assay type: functional, C57BI/6
[9] = system: Staphylococcus epidermidis; test: Antibiofilm activity against Staphylococcus epidermidis ATCC 35984 assessed as inhibition of 24 hrs pre-established biofilm formation at 0.064 umol/well after 20 hrs by safranin staining-based method; assay type: functional, organism-based
[10] = system: Staphylococcus epidermidis; test: Antibiofilm activity against Staphylococcus epidermidis ATCC 35984 assessed as 12 hrs pre-established supernatant viable cell count at 0.04 umol/mesh after 20 hrs by […] using compound impregnated in polypropylene mesh (Rvb =7.7 x 10^8 CFU/ml); assay type: functional
Pseudomonas aeruginosa = test: Antibacterial activity against Pseudomonas aeruginosa ATCC 27853 at 658 uM incubated overnight by broth microdilution method; assay type: functional, organism-based
[11] = system: Staphylococcus epidermidis; test: Antibiofilm activity against Staphylococcus epidermidis ATCC 35984 assessed as inhibition of 12 hrs pre-established biofilm formation at 0.064 umol/well after 20 hrs by safranin staining-based method; assay type: functional, organism-based
[12] = Induction of apoptosis in C57Bl/6 mouse BMDM cells assessed as viable cells at 40 uM by annexin V-FITC/DAPI staining-based flow cytometric analysis (reference value: 46.7%); assay type: functional; conditions: C57BI/6, BMDM, read-out: Activity
BMDM [13] = test: Inhibition of IL-6 production in C57Bl/6 mouse BMDM cells at 5 uM pretreated prior to LPS-stimulation measured on day 7 by ELISA; assay type: functional, cell-based; conditions: C57BI/6
[14] = system: Staphylococcus epidermidis; test: as §1, with “biofilm” for “supernatant”, “0.16” for “0.01”, “(reference value: 8.6” for “(Rvb =7.7”, “10^9” for “10^8”; assay type: functional
[15] = Induction of apoptosis in C57Bl/6 mouse BMDM cells assessed as dead cells at 160 uM by annexin V-FITC/DAPI staining-based flow cytometric analysis (reference value: 24.4%); assay type: functional, C57BI/6
[16] = Induction of apoptosis in C57Bl/6 mouse BMDM cells assessed as early apoptotic cells at 2.5 uM by annexin V-FITC/DAPI staining-based flow cytometric analysis (reference value: 0.49%); assay type: functional, C57BI/6
[17] = Induction of apoptosis in C57Bl/6 mouse BMDM cells assessed as late apoptotic cells at 2.5 uM by annexin V-FITC/DAPI staining-based flow cytometric analysis (reference value: 28.4%); assay type: functional, C57BI/6
BMDM [18] = test: Inhibition of IL10 production in C57Bl/6 mouse BMDM cells by ELISA; assay type: functional, cell-based; conditions: C57BI/6
BMDM [19] = test: Decrease in IL-1beta production in C57Bl/6 mouse BMDM cells at 2.5 to 80 uM pretreated for 1 hr prior to ATP-stimulation by ELISA; assay type: functional, cell-based; conditions: C57BI/6
[20] = system: Staphylococcus epidermidis; test: Antibacterial activity against Staphylococcus epidermidis ATCC 35984 incubated overnight by broth microdilution method; assay type: functional
BMDM [21] = test: Inhibition of IL-6 production in C57Bl/6 mouse BMDM cells at 2.5 to 80 uM pretreated prior to LPS-stimulation measured on day 7 by ELISA; assay type: functional, cell-based; conditions: C57BI/6
[22] = Induction of apoptosis in C57Bl/6 mouse BMDM cells assessed as viable cells at 2.5 uM by annexin V-FITC/DAPI staining-based flow cytometric analysis (reference value: 46.7%); assay type: functional; conditions: C57BI/6, BMDM, read-out: Activity
[23] = system: Staphylococcus epidermidis; test: Antibiofilm activity against Staphylococcus epidermidis ATCC 35984 assessed as 3 hrs pre-established biofilm viable cell count after 20 hrs (reference value: 1 x 10^10 CFU/ml); assay type: functional
[24] = Induction of apoptosis in C57Bl/6 mouse BMDM cells assessed as late apoptotic cells at 40 uM by annexin V-FITC/DAPI staining-based flow cytometric analysis (reference value: 28.4%); assay type: functional, C57BI/6
[25] = system: Staphylococcus epidermidis; test: Antibiofilm activity against Staphylococcus epidermidis ATCC 35984 assessed as inhibition of 24 hrs pre-established biofilm formation at 0.064 umol/well after 20 hrs by visible spectrometric analysis; assay type: functional, organism-based
[26] = Induction of apoptosis in C57Bl/6 mouse BMDM cells assessed as late apoptotic cells at 80 uM by annexin V-FITC/DAPI staining-based flow cytometric analysis (reference value: 28.4%); assay type: functional, C57BI/6
[27] = Cytotoxicity against C57Bl/6 mouse BMDM cells assessed as cell viability at <=80 uM after 72 hrs by MTS assay; assay type: cell-based, C57BI/6
[28] = system: Staphylococcus epidermidis; test: Antibiofilm activity against Staphylococcus epidermidis ATCC 35984 assessed as induction of loosely attached live and dead bacteria in 12 hrs pre-established biofilm at 0.064 umol/well after 20 hrs by fluorescence staining-based confocal microscopic analysis; assay type: functional, organism-based
[29] = system: Staphylococcus epidermidis; test: Antibiofilm activity against Staphylococcus epidermidis ATCC 35984 assessed as 12 hrs pre-established biofilm viable cell count after 20 hrs (reference value: 1.2 x 10^10 CFU/ml); assay type: functional
[30] = Induction of apoptosis in C57Bl/6 mouse BMDM cells assessed as dead cells at 40 uM by annexin V-FITC/DAPI staining-based flow cytometric analysis (reference value: 24.4%); assay type: functional, C57BI/6
[31] = Induction of apoptosis in C57Bl/6 mouse BMDM cells assessed as early apoptotic cells at 40 uM by annexin V-FITC/DAPI staining-based flow cytometric analysis (reference value: 0.49%); assay type: functional, C57BI/6
Escherichia coli = test: Antibacterial activity against Escherichia coli ATCC 25922 at 658 uM incubated overnight by broth microdilution method; assay type: functional, organism-based

CC(C)=CCC[C@H](C)[C@@H]1CC[C@@H](C)c2c(O)cc(C(=O)O)cc21
inhibition [1]: Active
Activity [2]: 3.4 ×10⁸ CFU/ml
inhibition [3]: Active
MBC (Staphylococcus aureus): 82 µM (≈ 25.9 µg/mL)
MIC (Staphylococcus aureus): 41 µM (≈ 13 µg/mL)
Activity [4]: 9.1 ×10⁸ CFU/ml
inhibition (BMDM [5]): Active
Activity [6]: 5 ×10⁷ CFU/ml
Activity [7]: 6.7 ×10⁸ CFU/ml
Activity [8]: 4.05%
Activity [9]: inactive
Activity [10]: 1.5 ×10⁷ CFU/ml
Activity (Pseudomonas aeruginosa): inactive
inhibition [11]: Active
viability at 40 µM [12]: 49.5%
inhibition (BMDM [13]): Active
Activity [14]: 3.9 ×10⁴ CFU/ml
Activity [15]: 0.63%
Activity [16]: 2.54%
Activity [17]: 32.7%
inhibition (BMDM [18]): inactive
Activity (BMDM [19]): inactive
MBC [20]: 82 µM (≈ 25.9 µg/mL)
MIC [20]: 82 µM (≈ 25.9 µg/mL)
inhibition (BMDM [21]): Active
viability at 2.5 µM [22]: 51.4%
Activity [23]: 0 CFU/ml
Activity [24]: 27.7%
inhibition [25]: Active
Activity [26]: 44.4%
Activity [27]: Non-toxic
Activity [28]: Active
Activity [29]: 6 ×10³ CFU/ml
Activity [30]: 21.8%
Activity [31]: 0.99%
Activity (Escherichia coli): inactive
